The values that follow come from patent US7981893B2, “Heteroaryl compounds, compositions thereof, and methods of treatment therewith” (Signal Pharmaceuticals, LLC, priority 2006, dated 2011).

Structures are written as SMILES.

`NC(=O)c1ccc(-c2cnc3[nH]c(=O)n(CC4CCOCC4)c3n2)cc1` [Compound 143, 4-(2-oxo-3-((Tetrahydro-2H-pyran-4-yl)methyl)-2,3-dihydro-1H-imidazo[4,5-b]pyrazin-5-yl)benzamide] yielded a melting point of 273 to 275 °C. For `CC(C)(O)c1ccc(-c2cnc3[nH]c(=O)n(CC4CCOCC4)c3n2)cc1` [Compound 145, 6-(4-(2-Hydroxypropan-2-yl)phenyl)-1-((tetrahydro-2H-pyran-4-yl)methyl)-1H-imidazo[4,5-b]pyrazin-2(3H)-one] the value was 212 to 214 °C; for `O=c1[nH]c2ncc(-c3ccc4[nH]ccc4c3)nc2n1CC1CCOCC1` [Compound 146, 6-(1H-Indol-5-yl)-1-((tetrahydro-2H-pyran-4-yl)methyl)-1H-imidazo[4,5-b]pyrazin-2(3H)-one], 305 to 308 °C. The molecule `O=c1[nH]c2ncc(-c3ccc4[nH]cnc4c3)nc2n1CC1CCCCC1` [Compound 148, 6-(1H-Benzo[d]imidazol-5-yl)-1-(cyclohexylmethyl)-1H-imidazo[4,5-b]pyrazin-2(3H)-one] had a melting point of 217 to 220 °C. For `NC(=O)c1ccc(-c2cnc3[nH]c(=O)n(CCC4CCOCC4)c3n2)cc1` [Compound 149, 4-(2-oxo-3-(2-(Tetrahydro-2H-pyran-4-yl)ethyl)-2,3-dihydro-1H-imidazo[4,5-b]pyrazin-5-yl)benzamide] the value was 233 to 236 °C; for `O=c1[nH]c2ncc(-c3cccc(-c4cn[nH]n4)c3)nc2n1CC1CCCCC1` [Compound 150, 6-(3-(2H-1,2,3-Triazol-4-yl)phenyl)-1-(cyclohexylmethyl)-1H-imidazo[4,5-b]pyrazin-2(3H)-one], 299 to 301 °C. In turn, `O=c1[nH]c2ncc(-c3ccc(-n4ccnc4)cc3)nc2n1CC1CCCCC1` [Compound 151, 6-(4-(1H-Imidazol-1-yl)phenyl)-1-(cyclohexylmethyl)-1H-imidazo[4,5-b]pyrazin-2(3H)-one] had a melting point of 284 to 287 °C. Take `O=c1[nH]c2ncc(-c3ccnc(O)c3)nc2n1CC1CCCCC1` [Compound 154, 1-(Cyclohexylmethyl)-6-(2-hydroxypyridin-4-yl)-1H-imidazo[4,5-b]pyrazin-2(3H)-one]: the melting point lay within 311 to 313 °C. For `O=c1[nH]c2ncc(-c3ccc(-c4ncc[nH]4)cc3)nc2n1CC1CCCCC1` [Compound 156, 6-(4-(1H-Imidazol-2-yl)phenyl)-1-(cyclohexylmethyl)-1H-imidazo[4,5-b]pyrazin-2(3H)-one] the value was 349 to 351 °C; for `O=c1[nH]c2ncc(-c3ccc(-n4ccnn4)cc3)nc2n1CC1CCCCC1` [Compound 157, 6-(4-(1H-1,2,3-Triazol-1-yl)phenyl)-1-(cyclohexylmethyl)-1H-imidazo[4,5-b]pyrazin-2(3H)-one], 276 to 278 °C; for `Cc1nc(-c2ccc(-c3cnc4[nH]c(=O)n(CC5CCCCC5)c4n3)cc2)n[nH]1` [Compound 159, 1-(Cyclohexylmethyl)-6-(4-(5-methyl-1H-1,2,4-triazol-3-yl)phenyl)-1H-imidazo[4,5-b]pyrazin-2(3H)-one], 315 to 318 °C. For the molecule `O=c1[nH]c2ncc(-c3ccc(-c4cc[nH]n4)cc3)nc2n1CC1CCCCC1` [Compound 160, 6-(4-(1H-Pyrazol-3-yl)phenyl)-1-(cyclohexylmethyl)-1H-imidazo[4,5-b]pyrazin-2(3H)-one], the melting point is 292 to 294 °C.

Take `O=c1[nH]c2ncc(-c3ccc(-c4cn[nH]c4)cc3)nc2n1CC1CCCCC1` [Compound 161, 6-(4-(1H-Pyrazol-4-yl)phenyl)-1-(cyclohexylmethyl)-1H-imidazo[4,5-b]pyrazin-2(3H)-one]: the melting point is 305 to 307 °C.

`O=c1[nH]c2ncc(-c3ccc(-c4n[nH]c(C(F)(F)F)n4)cc3)nc2n1CC1CCCCC1` [Compound 163, 1-(Cyclohexylmethyl)-6-(4-(5-(trifluoromethyl)-1H-1,2,4-triazol-3-yl)phenyl)-1H-imidazo[4,5-b]pyrazin-2(3H)-one] gave a melting point of 303 to 305 °C.

In the case of `O=c1[nH]c2ncc(-c3ccc(O)cc3)nc2n1CC1CCCO1` (stereo not shown) [Compound 165, 6-(4-Hydroxyphenyl)-1-((tetrahydrofuran-2-yl)methyl)-1H-imidazo[4,5-b]pyrazin-2(3H)-one], the melting point was in the range of 256 to 258 °C. Take `O=c1[nH]c2ncc(-c3cccc(-c4nc[nH]n4)c3)nc2n1CC1CCCCC1` [Compound 166, 6-(3-(1H-1,2,4-Triazol-3-yl)phenyl)-1-(cyclohexylmethyl)-1H-imidazo[4,5-b]pyrazin-2(3H)-one]: the melting point was 305 to 307 °C.

Regarding `Cn1cc(-c2cnc3[nH]c(=O)n(CC4CCOCC4)c3n2)cn1` [Compound 170, 6-(1-Methyl-1H-pyrazol-4-yl)-1-((tetrahydro-2H-pyran-4-yl)methyl)-1H-imidazo[4,5-b]pyrazin-2(3H)-one], the melting point was in the range of 224 to 226 °C. For `O=c1[nH]c2ncc(-c3ccc(O)cc3)nc2n1CC1CCOC1` (stereo not shown) [Compound 172, 6-(4-Hydroxyphenyl)-1-((tetrahydrofuran-3-yl)methyl)-1H-imidazo[4,5-b]pyrazin-2(3H)-one] the value was 256 to 258 °C. As to `O=c1[nH]c2ncc(-c3ccc(-c4n[nH]c(CN5CCOCC5)n4)cc3)nc2n1CC1CCOCC1` [Compound 175, 6-(4-(5-(Morpholinomethyl)-1H-1,2,4-triazol-3-yl)phenyl)-1-((tetrahydro-2H-pyran-4-yl)methyl)-1H-imidazo[4,5-b]pyrazin-2(3H)-one], the melting point was 281 to 283 °C. For `O=C1CCCN1CCCn1c(=O)[nH]c2ncc(-c3ccc(O)cc3)nc21` [Compound 176, 6-(4-Hydroxyphenyl)-1-(3-(2-oxopyrrolidin-1-yl)propyl)-1H-imidazo[4,5-b]pyrazin-2(3H)-one] the value was 305 to 306 °C; for `COCc1nc(-c2ccc(-c3cnc4[nH]c(=O)n(CC5CCOCC5)c4n3)cc2)n[nH]1` [Compound 180, 6-(4-(5-(Methoxymethyl)-1H-1,2,4-triazol-3-yl)phenyl)-1-((tetrahydro-2H-pyran-4-yl)methyl)-1H-imidazo[4,5-b]pyrazin-2(3H)-one], 273 to 276 °C. For `Cc1n[nH]cc1-c1cnc2[nH]c(=O)n(CC3CCOCC3)c2n1` [Compound 182, 6-(3-Methyl-1H-pyrazol-4-yl)-1-((tetrahydro-2H-pyran-4-yl)methyl)-1H-imidazo[4,5-b]pyrazin-2(3H)-one] the value was 222 to 224 °C. Under `O=c1[nH]c2ncc(-c3cn[nH]c3)nc2n1CC1CCOCC1` [Compound 183, 6-(1H-Pyrazol-4-yl)-1-((tetrahydro-2H-pyran-4-yl)methyl)-1H-imidazo[4,5-b]pyrazin-2(3H)-one] stands 238 to 240 °C; under `CC(C)(O)c1nc(-c2ccc(-c3cnc4[nH]c(=O)n(CC5CCOCC5)c4n3)cc2)n[nH]1` [Compound 185, 6-(4-(5-(2-Hydroxypropan-2-yl)-1H-1,2,4-triazol-3-yl)phenyl)-1-((tetrahydro-2H-pyran-4-yl)methyl)-1H-imidazo[4,5-b]pyrazin-2(3H)-one], 249 to 253 °C. `CC(C)c1nc(-c2ccc(-c3cnc4[nH]c(=O)n(CC5CCOCC5)c4n3)cc2)n[nH]1` [Compound 186, 6-(4-(5-Isopropyl-1H-1,2,4-triazol-3-yl)phenyl)-1-((tetrahydro-2H-pyran-4-yl)methyl)-1H-imidazo[4,5-b]pyrazin-2(3H)-one] came in with a melting point of 305 to 308 °C.

Consider `O=c1[nH]c2ncc(-c3cnc4[nH]cnc4c3)nc2n1CC1CCOCC1` [Compound 190, 6-(3H-imidazo[4,5-b]pyridin-6-yl)-1-((tetrahydro-2H-pyran-4-yl)methyl)-1H-imidazo[4,5-b]pyrazin-2(3H)-one], for which the melting point fell in the range of 367 to 370 °C. For `O=c1[nH]c2ncc(-c3ccc(-n4cccn4)cc3)nc2n1CC1CCOCC1` [Compound 192, 6-(4-(1H-Pyrazol-1-yl)phenyl)-1-((tetrahydro-2H-pyran-4-yl)methyl)-1H-imidazo[4,5-b]pyrazin-2(3H)-one] the value was 294 to 296 °C. Under `O=c1[nH]c2ncc(-c3ccc(-c4nnc[nH]4)cc3)nc2n1CCN1CCOCC1` [Compound 193, 6-(4-(4H-1,2,4-Triazol-3-yl)phenyl)-1-(2-morpholinoethyl)-1H-imidazo[4,5-b]pyrazin-2(3H)-one] stands 295 to 297 °C. Under `O=c1[nH]c2ncc(-c3ccc(-c4nc5ccccc5[nH]4)cc3)nc2n1CC1CCOCC1` [Compound 194, 6-(4-(1H-Benzo[d]imidazol-2-yl)phenyl)-1-((tetrahydro-2H-pyran-4-yl)methyl)-1H-imidazo[4,5-b]pyrazin-2(3H)-one] stands more than 300 °C; under `O=c1[nH]c2ncc(-c3ccc(-c4n[nH]c(CO)n4)cc3)nc2n1CC1CCOCC1` [Compound 196, 6-(4-(5-(Hydroxymethyl)-1H-1,2,4-triazol-3-yl)phenyl)-1-((tetrahydro-2H-pyran-4-yl)methyl)-1H-imidazo[4,5-b]pyrazin-2(3H)-one], 258 to 260 °C. In turn, `O=C1CCC(Cn2c(=O)[nH]c3ncc(-c4ccc(O)cc4)nc32)N1` (stereo not shown) [Compound 198, 6-(4-Hydroxyphenyl)-1-((5-oxopyrrolidin-2-yl)methyl)-1H-imidazo[4,5-b]pyrazin-2(3H)-one] came in with a melting point of 338 to 340 °C.

Turning to `Cc1nc(-c2ccc(-c3cnc4[nH]c(=O)n(CC5CCOCC5)c4n3)cc2)[nH]c1C` [Compound 199, 6-(4-(4,5-Dimethyl-1H-imidazol-2-yl)phenyl)-1-((tetrahydro-2H-pyran-4-yl)methyl)-1H-imidazo[4,5-b]pyrazin-2(3H)-one], the melting point is 250 to 254 °C (dec.). Regarding `O=c1[nH]c2ncc(-c3ccc(-c4nc[nH]n4)nc3)nc2n1CC1CCOCC1` [Compound 202, 6-(6-(1H-1,2,4-Triazol-3-yl)pyridin-3-yl)-1-((tetrahydro-2H-pyran-4-yl)methyl)-1H-imidazo[4,5-b]pyrazin-2(3H)-one], the melting point fell in the range of 353 to 356 °C. Under `O=C1CCCN1CCn1c(=O)[nH]c2ncc(-c3ccc(-c4nc[nH]n4)cc3)nc21` [Compound 203, 6-(4-(1H-1,2,4-Triazol-3-yl)phenyl)-1-(2-(2-oxopyrrolidin-1-yl)ethyl)-1H-imidazo[4,5-b]pyrazin-2(3H)-one] stands 300 to 301 °C.

By melting point is commonly meant the temperature of the solid-liquid transition.
